From patent US6555523B1, “Use of cirsiliol and derivatives to treat infections” (priority 1999, dated 2003)
Values after ≈ are worked out from the molar mass of the structure shown. Values joined by “and” are separate entries in the source; they are usually repeats but may differ in a detail not shown here. Identical values can stand only once. Marks after values point to notes of the source that are not given here.

How the values were obtained:
[1] = Drug cytotoxicity, Protocol A2 (microscopic); settings: human, Hep2 cell monolayers
parainfluenza HA-1 = experiment: CPE-inhibition (microscopic) assay, Protocol A2; format: cell-based, parainfluenza virus; settings: HEp-2, cell Hep2 (cell blank for 3-(4′-bromophenyl) coumarin)
HIV ROJO = experiment: Anti-HIV assay in fresh human PBL (RT activity), Protocol D1; settings: Human immunodeficiency virus 1, PBMC
in vitro [2] = settings: human, TC50
Influenza A = experiment: CPE-inhibition (microscopic) assay, Protocol A2; format: cell-based; settings: Influenza A virus, MDCK
toxoplasma = experiment: Inhibition of parasite levels in vivo, mice infected with 20 toxoplasma cysts; parameters: species or system Mice (C57BL/6)
Source text: Inhibition of parasite levels in vivo. Mice (C57BL/6) were infected with 20 toxoplasma cysts and then treated with cirsiliol or control vehicle (0.1% DMSO). After the treatment, the level of toxoplasma cysts in the brain was reduced (about 1.5-2 fold) by the cirsiliol treatment compared to the control.

rhinovirus 14 = experiment: Anti-picornaviral virus yield assay, Protocol B; format: cell-based, Rhinovirus type 14; settings: Enterovirus
in vitro [3] = settings: dog
T, gondii RH = experiment: In-vitro anti Toxoplasma gondii activity in HFF, Protocol C; format: cell-based
Procedure: Protocol C—In-vitro testing of anti Toxoplasma gondii activity of Cirsiliol and Naringin. The compounds were tested in an in vitro cell culture assay utilizing human fibroblasts (HFF line) as the host cell. RH strain Toxoplasma gondii that has been transfected with β-galactosidase as a marker for quantitative detection of parasite number (RH Bgal), was used as the challenge organism. The compounds ere dissolved, and then diluted in cell culture medium at least 100 fold for the assays. Controls containing the maximum concentration of solvent used in the assay were run with each test. The active drugs were added and the monolayers were infected immediately at the beginning of each test. Extracellular T. gondii were removed by rinsing the monolayer, and infected host cells remained in contact with the cells for the entire test period. Each test was terminated when at least four parasite doublings could be visually identified in the control monolayers, and parasite numbers were quantitated by standard colorimetric assay for bet galactosidase activity with optical density at 550 nm as the readout. The optical density in this assay has a direct and linear correlation with parasite numbers over a 5-log parasite concentration. Toxicity in the host cells was determined by inspection for cytopathic effects and visual evaluation of cell growth.

[4] = Drug cytotoxicity by XTT in PBL, Protocol D1; settings: human, TC50, PBMC, printed on each HIV isolate line
[5] = Drug solubility observed in the BVDV test; settings: BVDV test in MDBK cultures; naringin solvent EtOH
[6] = tested on: Bovine Viral Diarrhea Virus; experiment: Plaque formation by Bovine Viral Diarrhea Virus in MDBK cultures; format: cell-based, bovine viral diarrhea virus (BVDV); settings: for % Reduction: plaques; for Number of plaques: Tests 1-3, control 68
Procedure: HCV in vitro assays. No well-accepted model exists for HCV and new compounds for use in the treatment of HCV are frequently tested for activity against bovine viral diarrhea virus (BVDV), a virus which is related to HCV.
A representative compound according to the present invention, naringin (i.e., 7-neohesperidoside, 5, 4′ dihydroxyflavanone) was tested for anti-BVDV activity in MDBK cells.

MDBK cells = experiment: Cytotoxicity in MDBK cultures (BVDV test); settings: at 10.000 μg/mL, no toxicity at lower concentrations
Procedure: As a comparison, similar tests were conducted using ribavirin.

HIV clade A UG/93/037 = experiment: Anti-HIV assay in fresh human PBL (RT activity), Protocol D1; settings: Human immunodeficiency virus 1, PBMC
HIV Ba-L = experiment: Anti-HIV assay in fresh human monocyte-macrophages (p24 ELISA), Protocol D2; format: cell-based; settings: Human immunodeficiency virus 1, BAL, Macrophage, Protocol D2
Procedure: Protocol D2—Assay in fresh human monocyte-macrophages. […] The cells are placed in a 96-well microtiter plate at 37° C. for 2 hours. Non-adherent cells are removed by vigorously washing six times. […] The cultures are carefully monitored for confluency during this incubation period. Infection of the cells is performed with monocytotropic HIV-1 isolates. High titer pools of each of these viruses are harvested from infected cultures of peripheral blood adherent cells and frozen in 1.0 ml aliquots at −80° C. Monocytemacrophage monolayers are infected at a multiplicity of infection (“MOI”) of 0.1.
(§1) At 2 days post-infection, the medium is decanted and the cultures washed twice with complete medium in order to remove excess virus. Fresh medium alone or medium containing the appropriate concentration of drug is added and incubation continued for an additional five days. XTT staining for cytotoxicity and HIV p24 ELISA assays for production of p24 core antigen are performed on Day 7 post infection. This is performed according the ELISA kit assay manufacturers recommendations. Control curves are generated in each assay to accurately quantitate the amount of capsid protein in each sample. Data is obtained by spectrophotometric analysis at 450 nm using a Molecular Devices Vmax plate reader. P24 concentrations are calculated form the optical density values by use of the Molecular Device software package Soft Max.
Most of the values were based on average values that were obtained from duplicate or triplicate assay wells.

HIV Merck 1022-48 = experiment: Anti-HIV assay in fresh human PBL (RT activity), Protocol D1; format: cell-based; settings: Human immunodeficiency virus 1, PBMC
HIV Merck 1064-52 = experiment: as above; settings: Human immunodeficiency virus 1, PBMC
HIV clade B BR/92/014 = experiment: as above; settings: Human immunodeficiency virus 1, PBMC
[7] = Drug cytotoxicity by XTT in monocyte-macrophages, Protocol D2; format: cell-based; settings: human; macrophage; Protocol D2; read-out: TC50
Procedure: Protocol D2—Assay in fresh human monocyte-macrophages. […] The cells are placed in a 96-well microtiter plate at 37° C. for 2 hours. Non-adherent cells are removed by vigorously washing six times. […] The cultures are carefully monitored for confluency during this incubation period. Infection of the cells is performed with monocytotropic HIV-1 isolates. […] Monocytemacrophage monolayers are infected at a multiplicity of infection (“MOI”) of 0.1.
as §1

HIV clade E THA/93/073 = experiment: Anti-HIV assay in fresh human PBL (RT activity), Protocol D1; settings: Human immunodeficiency virus 1, PBMC
HIV Merck 52-52 = experiment: as above; settings: Human immunodeficiency virus 1, PBMC
HIV Merck 1002-60 = experiment: as above; settings: Human immunodeficiency virus 1, PBMC
HIV Merck 144-44 = experiment: as above; settings: Human immunodeficiency virus 1, PBMC
HIV Merck 1026-60 = experiment: as above; settings: Human immunodeficiency virus 1, PBMC
HIV clade F BR/92/021 = experiment: as above; settings: Human immunodeficiency virus 1, PBMC

SMILES: O=c1oc2ccccc2cc1-c1ccc(Br)cc1 [3-(4′-Bromophenyl) coumarin, 3-(4′-bromophenyl) coumarin]
- CC50 [1]: 100 µM
- IC50 (parainfluenza HA-1): 6.3 µM

SMILES: O=c1cc(-c2ccccc2)oc2ccc(O)cc12 [6-Hydroxyflavone, 6-hydroxyflavone]
- IC50 (HIV ROJO): 41.8 µM
- CC50 (in vitro [2]): 53.9 µM

SMILES: COc1cc2oc(-c3ccc(O)c(O)c3)cc(=O)c2c(O)c1OC [Cirsiliol, 6,7′-dimethoxy-5,3′,4′-trihydroxyflavone]
- CC50 [1]: 12.5 µM
- IC50 (Influenza A): > 200 µM
- survival of toxoplasmosis infection (toxoplasma; 8 mice, 21-day post infection follow up, 4 of 8 vehicle control mice died by 15 days): all 8 cirsiliol treated mice survived
- level of toxoplasma cysts in the brain reduced compared to the control (toxoplasma; C57BL/6 mice, 20 toxoplasma cysts, control vehicle 0.1% DMSO): 1.5-2 fold
- IC50 (parainfluenza HA-1): 7.8 µM
- IC50 (rhinovirus 14): ~3 µM
- CC50 (in vitro [3]): < 6.3 µM
- IC50 (T, gondii RH): ~2 µM

SMILES: O=c1cc(-c2ccccc2)oc2ccccc12 [Flavone, flavone]
- IC50 (HIV ROJO): 86.6 µM
- CC50 (in vitro [2]): 173 µM

SMILES: COc1ccc([C@@H]2CC(=O)c3c(O)cc(O)cc3O2)cc1O [Hesperetin, hesperetin]
- IC50 (HIV ROJO): 134 µM
- CC50 [4]: 190 µM

SMILES: NC(=O)c1ncn([C@@H]2O[C@H](CO)[C@@H](O)[C@H]2O)n1 [Ribavirin, ribavirin, reference compound]
- drug solubility observation [5]: Comment: Positive control drug. Drug was soluble in medium.
- ID50 ([6]; BVDV plaque formation in MDBK, table footnote, unit from the table's concentration head): 1.24 µg/mL (≈ 5.08 µM)
- % Reduction ([6]; ribavirin 0.320 μg/mL): 14.10%
- % Reduction ([6]; ribavirin 1.000 μg/mL): 38.99%
- % Reduction ([6]; ribavirin 3.200 μg/mL): 93.65%
- % Reduction ([6]; ribavirin 10.000 μg/mL, partial toxicity to the cells): 100.00* %
- Number of plaques ([6]; ribavirin 0.320 μg/mL): 55 and 62 and 59
- Number of plaques ([6]; ribavirin 1.000 μg/mL): 36 and 42 and 47
- Number of plaques ([6]; ribavirin 3.200 μg/mL): 4 and 5
- Number of plaques ([6]; ribavirin 10.000 μg/mL): 0
- toxicity to the cells (MDBK cells): *Partial toxicity to the cells was observed with no toxicity at lower concentrations

SMILES: COc1ccc(-c2cc(=O)c3c(OC)c(OC)c(OC)c(OC)c3o2)cc1 [Tangeretin, tangeretin]
- IC50 (HIV clade A UG/93/037): 19.4 µM
- IC50 (HIV Ba-L): > 100 µM
- IC50 (HIV Merck 1022-48): 20.8 µM
- IC50 (HIV Merck 1064-52): 15 µM
- IC50 (HIV clade B BR/92/014): 12.3 µM
- CC50 at 7 days [7]: > 100 µM
- IC50 (HIV clade E THA/93/073): 15.3 µM
- IC50 (HIV Merck 52-52): 18.2 µM
- IC50 (HIV Merck 1002-60): 9.7 µM
- IC50 (HIV Merck 144-44): 14.7 µM
- IC50 (HIV Merck 1026-60): 19.8 µM
- IC50 (HIV clade F BR/92/021): 15.7 µM
